Molecules are shown by their SMILES. Values joined by “and” are separate entries in the source; they are usually repeats but may differ in a detail not shown here. Identical values can stand only once.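 Grown in 96-well plates, cells were treated for 48 hours with each compound at five concentrations. Insufficient inhibition: endpoint recorded as highest concentration tested. Here, GI50 denotes the concentration required for 50% inhibition of growth. At the TGI there is no net growth.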 Peptide text beside a SMILES is read from it. * marks the point of attachment. Boc = CC(C)(C)OC(=O)*; OBn = c1ccc(CO*)cc1 Bounds are passed on as bounds.

Experimental findings from PubChem BioAssay (NCI) are described below.

Some test systems named below: K-562 leukemia; PC-3 prostate; MDA-N; M14 melanoma; OVCAR-8 ovarian; SK-MEL-2 melanoma; ACHN renal; NCI-H23 lung; NCI-H522 lung; COLO 205 colon; RPMI-8226 leukemia; SF-268 CNS; CCRF-CEM leukemia.
Common to all, as to assay: NCI-60 cell line screen, 48 h

Turning to `CSC1=N/C(=C\c2ccco2)C(=O)N1CN1CCCCC1`, the TGI with K-562 leukemia, in the assay on PC-3 prostate, in the assay on MDA-N, in the assay with M14 melanoma, in the assay on OVCAR-8 ovarian and with SK-MEL-2 melanoma was over 100 µM each time. Besides, the TGI with ACHN renal, in the assay with NCI-H23 lung, in the assay on NCI-H522 lung, with COLO 205 colon, in the assay with RPMI-8226 leukemia and in the assay on SF-268 CNS was over 100 µM each time.
Turning to `O=C(C1C(c2ccccc2)N1C(c1ccccc1)c1ccccc1)C1C(c2ccccc2)N1C(c1ccccc1)c1ccccc1` (stereo unspecified), the TGI was 20.3 µM in the assay on K-562 leukemia; 53.7 µM in the assay on PC-3 prostate; over 100 µM in the assay with MDA-N; over 100 µM with M14 melanoma; over 100 µM in the assay with OVCAR-8 ovarian; 23.7 µM in the assay with NCI-H522 lung. Moreover, the figures for the TGI in the assay with CCRF-CEM leukemia, with RPMI-8226 leukemia and in the assay on SF-268 CNS were 22.9 µM, 10.9 µM and 67.5 µM, respectively.
Consider `CCCCCCCCC/C=C1\CC(CO)(COC(=O)C2CCCCC2)OC1=O` (stereo unspecified), for which the TGI in the assay with K-562 leukemia is over 100 µM; with PC-3 prostate, 40.4 µM; in the assay on MDA-N, 38.8 µM; in the assay with M14 melanoma it was 55.9 µM; in the assay with OVCAR-8 ovarian, 29.2 µM; in the assay with SK-MEL-2 melanoma it was 43.1 µM. Besides, the TGI stood at 69.1 µM in the assay with ACHN renal; 47 µM with NCI-H23 lung; 34.6 µM in the assay with NCI-H522 lung; 30.9 µM in the assay with COLO 205 colon; 63.2 µM in the assay with CCRF-CEM leukemia; 46.7 µM in the assay with SF-268 CNS.
Consider `CC(NC(=O)CNC(=O)OC(C)(C)C)C(=O)NC(Cc1ccccc1)C(=O)OCc1ccccc1` (stereo not drawn) (Boc-Gly-Ala-Phe-OBn; configuration not given here), for which the TGI in the assay with K-562 leukemia, in the assay on PC-3 prostate, with MDA-N, in the assay with M14 melanoma, in the assay with OVCAR-8 ovarian and in the assay on SK-MEL-2 melanoma was over 100 µM in each case. Also, the TGI in the assay with ACHN renal, in the assay on NCI-H23 lung, in the assay on NCI-H522 lung, in the assay with COLO 205 colon, with CCRF-CEM leukemia and with SF-268 CNS was over 100 µM in each case.
As for `COC(=O)C(=O)C(C(=O)C(=O)Nc1ccccc1C(C)=O)c1nc2ccc(C(=O)c3ccccc3)cc2[nH]c1=O` (stereo unspecified), the TGI with K-562 leukemia, in the assay on PC-3 prostate, in the assay on MDA-N, with M14 melanoma, in the assay on OVCAR-8 ovarian and in the assay on SK-MEL-2 melanoma was over 100 µM in each case. The TGI in the assay on ACHN renal, in the assay on NCI-H23 lung, in the assay on NCI-H522 lung, in the assay with RPMI-8226 leukemia and with SF-268 CNS was over 100 µM each time.
Take `COC(=O)C1=C(\c2ccccc2)c2ccccc2C(=O)N(C2CCCCC2)/C=C\1`: the TGI in the assay with K-562 leukemia is over 100 µM; in the assay on PC-3 prostate it was over 100 µM; with MDA-N, over 100 µM; in the assay with M14 melanoma, over 100 µM; in the assay on OVCAR-8 ovarian it was over 100 µM; in the assay on SK-MEL-2 melanoma, 39.2 µM. Further, the TGI was over 100 µM in the assay with ACHN renal; over 100 µM with NCI-H23 lung; over 100 µM in the assay with NCI-H522 lung; 28.8 µM in the assay on COLO 205 colon; 75.5 µM with CCRF-CEM leukemia; over 100 µM in the assay on SF-268 CNS.
As for `N#Cc1c(Cl)/c(=C/O)c(=O)n2c1nc1ccccc12`, the TGI with K-562 leukemia, in the assay on PC-3 prostate, in the assay with MDA-N, with M14 melanoma, with OVCAR-8 ovarian and in the assay on ACHN renal was over 100 µM throughout. Also, the TGI in the assay with NCI-H23 lung, with NCI-H522 lung, in the assay on COLO 205 colon, in the assay on CCRF-CEM leukemia, in the assay on RPMI-8226 leukemia and in the assay with SF-268 CNS was over 100 µM throughout.
On to `CCCCCC(CO)C(O)(C(F)(F)F)C(F)(F)F` (stereo unspecified), for which the TGI in the assay with K-562 leukemia, with PC-3 prostate, in the assay on MDA-N, in the assay with M14 melanoma, in the assay on OVCAR-8 ovarian and in the assay with SK-MEL-2 melanoma was over 10 µM in each case. Besides, the TGI in the assay on ACHN renal, in the assay with NCI-H23 lung, in the assay with NCI-H522 lung, in the assay with COLO 205 colon, with RPMI-8226 leukemia and with SF-268 CNS was over 10 µM throughout.
For the molecule `COc1cc(Nc2cnc3cc(F)c(F)cc3n2)cc(OC)c1`, the TGI with PC-3 prostate, in the assay with MDA-N, with M14 melanoma, in the assay on OVCAR-8 ovarian, in the assay with SK-MEL-2 melanoma and in the assay with ACHN renal was over 100 µM throughout. Moreover, the TGI was 91 µM with NCI-H23 lung; 42.4 µM in the assay on NCI-H522 lung; over 100 µM with COLO 205 colon; over 100 µM with CCRF-CEM leukemia; over 100 µM with SF-268 CNS.
As for `COC1=C(N2CC2)C(=O)c2nc3n(c2C1=O)CCC3`, the TGI is 5.27 µM in the assay on PC-3 prostate; 2.89 µM with MDA-N; 0.619 µM with M14 melanoma; 4.7 µM in the assay with OVCAR-8 ovarian; 0.851 µM with ACHN renal; 2.34 µM in the assay with NCI-H23 lung. In addition, the TGI is 0.385 µM with NCI-H522 lung; 2.13 µM in the assay with COLO 205 colon; 1.33 µM with CCRF-CEM leukemia; 0.336 µM in the assay with RPMI-8226 leukemia; 5.23 µM with SF-268 CNS.
Consider `CCOC(=O)c1c(-c2ccc(O)c(OC)c2)c(C#N)c(=S)n(C2OC(COC(C)=O)C(OC(C)=O)C(OC(C)=O)C2OC(C)=O)c1-c1ccccc1` (stereo unspecified), for which the GI50 in the assay on K-562 leukemia was 49.1 µM and > 100 µM. Further, the TGI with K-562 leukemia, in the assay with PC-3 prostate, in the assay on MDA-N, in the assay on M14 melanoma, in the assay on ACHN renal and in the assay on NCI-H23 lung was over 100 µM in each case. The TGI in the assay with NCI-H522 lung was 51.3 µM and 54.4 µM; in the assay on COLO 205 colon, over 100 µM; in the assay with CCRF-CEM leukemia it was over 100 µM; in the assay on RPMI-8226 leukemia, over 100 µM; in the assay on SF-268 CNS, over 100 µM.
With `COc1cc(NP(=O)(Oc2ccccc2)Oc2ccccc2)ccc1Nc1c2ccccc2nc2c1[nH]c1ccccc12`, the TGI was 6.71 µM in the assay on K-562 leukemia; over 89.7 µM in the assay on PC-3 prostate; 15.4 µM in the assay on MDA-N; 7.02 µM with M14 melanoma; 22.6 µM with SK-MEL-2 melanoma; 11.9 µM in the assay on ACHN renal. Besides, the TGI in the assay with NCI-H23 lung is 12.3 µM; with NCI-H522 lung it was 7.32 µM; in the assay on COLO 205 colon, over 43 µM; in the assay on SF-268 CNS, over 100 µM.
As for `COC(=O)C1=Cc2cc(OC)c(O)cc2[C@@H](c2ccc(O)c(OC)c2)[C@@H]1C(=O)OC`, the TGI with K-562 leukemia, in the assay with PC-3 prostate, in the assay with MDA-N, in the assay with M14 melanoma, in the assay with OVCAR-8 ovarian and in the assay with ACHN renal was over 100 µM in each case. The TGI with NCI-H23 lung, in the assay with NCI-H522 lung, in the assay with COLO 205 colon, with CCRF-CEM leukemia, in the assay with RPMI-8226 leukemia and in the assay with SF-268 CNS was over 100 µM throughout.
For `COc1cc(NCc2ccc3nc(OC)c(OC)nc3c2)cc(OC)c1OC`, the TGI with K-562 leukemia, in the assay on PC-3 prostate, in the assay with MDA-N, in the assay with M14 melanoma, in the assay on OVCAR-8 ovarian and with SK-MEL-2 melanoma was over 100 µM throughout. In addition, the TGI in the assay with ACHN renal, in the assay with NCI-H23 lung, in the assay with NCI-H522 lung, with COLO 205 colon, with CCRF-CEM leukemia and in the assay with SF-268 CNS was over 100 µM each time.
For `O=C(CCc1ccc(O)cc1)NCCc1cccc(OCc2ccccc2)c1`, the TGI was 65.9 µM in the assay on K-562 leukemia; 88.4 µM in the assay on PC-3 prostate; 68.4 µM in the assay with MDA-N; 36.2 µM in the assay on M14 melanoma; over 100 µM with OVCAR-8 ovarian; 39.1 µM in the assay on SK-MEL-2 melanoma. The TGI is over 100 µM in the assay with ACHN renal; 71.6 µM in the assay with NCI-H23 lung; 99.3 µM in the assay with NCI-H522 lung; over 100 µM in the assay with COLO 205 colon; 20.7 µM with CCRF-CEM leukemia; over 100 µM in the assay with SF-268 CNS.
For `N#CC(Nc1ccccc1)c1ccc(C(C#N)Nc2ccccc2)cc1` (stereo unspecified), the TGI in the assay with K-562 leukemia, with PC-3 prostate, in the assay on MDA-N, in the assay on M14 melanoma, in the assay with OVCAR-8 ovarian and in the assay on SK-MEL-2 melanoma was over 100 µM throughout. Moreover, the TGI was over 100 µM with ACHN renal; over 100 µM with NCI-H23 lung; over 100 µM in the assay with NCI-H522 lung; over 100 µM with COLO 205 colon; 48 µM in the assay on CCRF-CEM leukemia; over 100 µM with SF-268 CNS.
Consider `COc1ccc2c(c1)CCc1[nH]c3ccccc3c1CCCC2`, for which the TGI with K-562 leukemia, with PC-3 prostate, in the assay on MDA-N, in the assay with M14 melanoma, in the assay with OVCAR-8 ovarian and in the assay on ACHN renal was over 10 µM throughout. Moreover, the TGI with NCI-H23 lung, in the assay on NCI-H522 lung, in the assay with COLO 205 colon, in the assay with CCRF-CEM leukemia, in the assay on RPMI-8226 leukemia and in the assay with SF-268 CNS was over 10 µM throughout.
